Peptide text beside a SMILES is read from it.
How the values were obtained:
[1] = Single-dose pharmacokinetics in SD rats; type: in vivo, SD rat
[2] = Single-dose pharmacokinetics in beagle dogs; type: in vivo, beagle dog; details: for AUC0-last: n=3, mean
[3] = Single rising dose pharmacokinetics in beagle dogs; type: in vivo, beagle dog; details: for AUC(0-inf) / AUC(0-t) / Cmax / Tmax / half-life: male, beagle, dog, plasma, sc
[4] = In vitro blood to plasma partitioning; type: in vitro ADME, dog
mouse hepatocytes = experiment: Metabolite identification in hepatocytes; type: in vitro ADME; details: cryopreserved mouse hepatocytes, FC-12738 10 μM, 37 °C, 240 min, LC-UV-MS
[5] = Metabolism of FC-12738 in SD rat urine, feces and bile; type: in vivo; details: SC 10 mg/kg FC-12738 single
CYP2D6 = CYP2D6 (Homo sapiens, UniProt P10635); experiment: CYP450 inhibition assay; type: in vitro ADME
Sequence of CYP2D6 (P10635 whole entry): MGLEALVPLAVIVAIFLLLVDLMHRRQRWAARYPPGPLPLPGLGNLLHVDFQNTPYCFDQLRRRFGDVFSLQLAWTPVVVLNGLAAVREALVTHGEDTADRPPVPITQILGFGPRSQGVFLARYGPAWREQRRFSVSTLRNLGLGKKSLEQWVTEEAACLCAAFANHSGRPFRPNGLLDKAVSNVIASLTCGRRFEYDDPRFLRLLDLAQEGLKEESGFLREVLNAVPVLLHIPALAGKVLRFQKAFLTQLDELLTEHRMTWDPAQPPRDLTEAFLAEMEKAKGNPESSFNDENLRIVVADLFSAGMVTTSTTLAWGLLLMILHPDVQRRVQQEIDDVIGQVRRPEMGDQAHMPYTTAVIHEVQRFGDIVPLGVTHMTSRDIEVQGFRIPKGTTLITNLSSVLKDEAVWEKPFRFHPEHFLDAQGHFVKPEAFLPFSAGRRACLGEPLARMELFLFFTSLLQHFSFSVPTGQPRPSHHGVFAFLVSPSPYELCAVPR

CYP1A2 = target: T1, CYP1A2 (Homo sapiens, UniProt P05177); experiment: biochemical; type: in vitro ADME
T1 sequence (P05177 1-516): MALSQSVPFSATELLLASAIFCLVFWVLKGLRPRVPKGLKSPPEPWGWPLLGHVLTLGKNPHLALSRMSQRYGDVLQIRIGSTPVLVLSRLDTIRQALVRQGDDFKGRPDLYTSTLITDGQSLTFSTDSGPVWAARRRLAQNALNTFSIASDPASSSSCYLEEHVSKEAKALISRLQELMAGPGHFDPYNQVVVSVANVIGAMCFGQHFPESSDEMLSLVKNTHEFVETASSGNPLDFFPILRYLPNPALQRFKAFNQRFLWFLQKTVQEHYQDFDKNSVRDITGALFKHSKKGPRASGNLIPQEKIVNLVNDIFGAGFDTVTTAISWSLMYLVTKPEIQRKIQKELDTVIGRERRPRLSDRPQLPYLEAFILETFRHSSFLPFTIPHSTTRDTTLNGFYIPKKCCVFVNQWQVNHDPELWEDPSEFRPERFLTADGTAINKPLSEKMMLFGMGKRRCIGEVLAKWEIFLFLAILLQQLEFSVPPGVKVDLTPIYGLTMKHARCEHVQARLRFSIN

CYP2B6 [6] = target: T2, CYP2B6 (Homo sapiens, UniProt P20813); experiment: biochemical; type: in vitro ADME
T2 sequence (P20813 1-491): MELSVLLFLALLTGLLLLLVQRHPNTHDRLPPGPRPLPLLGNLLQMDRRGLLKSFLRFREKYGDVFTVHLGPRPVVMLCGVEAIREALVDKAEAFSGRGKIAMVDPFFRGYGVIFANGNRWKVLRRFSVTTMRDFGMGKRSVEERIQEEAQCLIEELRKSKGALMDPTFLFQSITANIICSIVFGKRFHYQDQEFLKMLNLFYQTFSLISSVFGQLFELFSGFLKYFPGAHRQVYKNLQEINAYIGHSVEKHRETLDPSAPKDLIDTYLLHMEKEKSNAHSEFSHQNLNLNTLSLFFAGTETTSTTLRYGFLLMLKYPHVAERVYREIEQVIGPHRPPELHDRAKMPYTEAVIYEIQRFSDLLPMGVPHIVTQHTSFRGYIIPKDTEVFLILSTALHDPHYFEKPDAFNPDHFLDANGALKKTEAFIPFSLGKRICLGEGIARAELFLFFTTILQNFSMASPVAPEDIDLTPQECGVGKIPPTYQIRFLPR

CYP2C9 = CYP2C9 (Homo sapiens, UniProt P11712); experiment: CYP time-dependent inhibition assay; type: in vitro ADME
Sequence of CYP2C9 (P11712 whole entry): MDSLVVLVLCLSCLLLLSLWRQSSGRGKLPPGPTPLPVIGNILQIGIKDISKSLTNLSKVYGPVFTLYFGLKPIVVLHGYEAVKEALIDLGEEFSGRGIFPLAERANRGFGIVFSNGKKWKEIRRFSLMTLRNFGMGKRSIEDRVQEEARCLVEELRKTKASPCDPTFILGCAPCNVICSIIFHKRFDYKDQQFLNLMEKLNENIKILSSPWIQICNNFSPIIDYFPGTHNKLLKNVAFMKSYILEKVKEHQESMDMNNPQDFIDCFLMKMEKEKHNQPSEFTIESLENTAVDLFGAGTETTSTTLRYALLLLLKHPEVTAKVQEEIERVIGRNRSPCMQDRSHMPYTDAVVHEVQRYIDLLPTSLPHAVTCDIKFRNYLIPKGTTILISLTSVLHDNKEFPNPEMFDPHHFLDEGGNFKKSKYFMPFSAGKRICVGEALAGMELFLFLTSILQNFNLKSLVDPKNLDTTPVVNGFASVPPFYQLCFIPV

CYP3A = experiment: CYP time-dependent inhibition assay; type: in vitro ADME, human
CYP2B6 [7] = type: in vitro ADME; details: cryopreserved human hepatocytes, three donors, 0.100 to 15.0 μM, 48 h, 37°C
OAT1 = OAT1 (Homo sapiens, UniProt Q4U2R8); experiment: Transporter inhibition in HEK293 cells; type: in vitro ADME
Sequence of OAT1 (Q4U2R8 whole entry): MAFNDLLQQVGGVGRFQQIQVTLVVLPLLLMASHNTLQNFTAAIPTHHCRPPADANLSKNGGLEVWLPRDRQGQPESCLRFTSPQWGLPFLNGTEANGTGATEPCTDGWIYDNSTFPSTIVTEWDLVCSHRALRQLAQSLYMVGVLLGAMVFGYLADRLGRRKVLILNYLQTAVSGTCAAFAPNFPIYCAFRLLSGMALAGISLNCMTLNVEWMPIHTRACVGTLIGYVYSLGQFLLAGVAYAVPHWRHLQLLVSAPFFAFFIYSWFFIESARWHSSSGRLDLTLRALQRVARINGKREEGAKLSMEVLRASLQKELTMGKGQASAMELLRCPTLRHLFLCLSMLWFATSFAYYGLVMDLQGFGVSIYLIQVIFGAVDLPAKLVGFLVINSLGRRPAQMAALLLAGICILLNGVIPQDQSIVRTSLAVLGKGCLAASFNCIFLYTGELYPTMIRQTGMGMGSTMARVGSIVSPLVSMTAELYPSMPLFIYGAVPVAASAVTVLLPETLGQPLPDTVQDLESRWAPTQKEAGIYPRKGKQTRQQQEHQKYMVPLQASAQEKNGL

MATE1 = MATE1 (Homo sapiens, UniProt Q96FL8); experiment: Transporter inhibition in HEK293 cells; type: in vitro ADME
Sequence of MATE1 (Q96FL8 whole entry): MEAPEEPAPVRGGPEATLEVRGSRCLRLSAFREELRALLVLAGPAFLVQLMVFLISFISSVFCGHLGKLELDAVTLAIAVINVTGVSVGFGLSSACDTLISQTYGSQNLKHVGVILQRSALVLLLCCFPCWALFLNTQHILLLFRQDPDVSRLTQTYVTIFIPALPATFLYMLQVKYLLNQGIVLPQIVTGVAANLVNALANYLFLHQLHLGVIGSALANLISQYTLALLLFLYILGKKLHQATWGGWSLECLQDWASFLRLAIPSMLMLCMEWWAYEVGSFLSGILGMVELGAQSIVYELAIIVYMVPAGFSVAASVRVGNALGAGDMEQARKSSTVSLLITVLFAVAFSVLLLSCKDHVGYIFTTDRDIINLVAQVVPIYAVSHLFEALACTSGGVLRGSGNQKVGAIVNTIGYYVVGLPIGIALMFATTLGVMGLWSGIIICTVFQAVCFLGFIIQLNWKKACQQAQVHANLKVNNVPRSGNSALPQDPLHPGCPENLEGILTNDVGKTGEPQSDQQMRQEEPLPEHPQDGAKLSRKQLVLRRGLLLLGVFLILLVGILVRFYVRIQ

[8] = male, SD, rat, plasma, iv, 2 mg/kg
[9] = male, SD, rat, plasma, sc, 10 mg/kg
[10] = male, beagle, dog, plasma, iv, 1 mg/kg
[11] = male, beagle, dog, plasma, sc, 5 mg/kg
[12] = cutoff IC50 shift >= 1.5-fold, 30 min pre-incubation ± NADPH

CC(C)[C@@H](NC(=O)[C@H](N)Cc1ccc(O)cc1)C(=O)N[C@H](CC(=O)O)C(=O)N[C@H](CCCCN)C(=O)N[C@H](CCCNC(=N)N)C(=O)O [FC-12738, (D-Tyr)-(D-Val)-(D-Asp)-(D-Lys)-(D-Arg)] (HELM PEPTIDE1{[dY].[dV].[dD].[dK].[dR]}$$$$V2.0)
Tolerability / adverse effects in-life ([1]; male SD rats, IV 2 mg/kg or SC 10 mg/kg single): No adverse effect was observed
AUC(0-inf) [1, 8]: 2830 ng·h/mL
AUC(0-t) [1, 8]: 2800 ng·h/mL
C0 [1, 8]: 7830 ng/mL
Vd [1, 8]: 0.309 L/kg
clearance [1, 8]: 11.8 mL/min/kg
half-life [1, 8]: 19.1 min
AUC(0-inf) [1, 9]: 13000 ng·h/mL
AUC(0-t) [1, 9]: 13000 ng·h/mL
Cmax [1, 9]: 8430 ng/mL
Tmax [1, 9]: 25 min
bioavailability [1, 9]: 91.9%
half-life [1, 9]: 40.8 min
Tolerability / adverse effects in-life ([2]; male beagle dogs, IV 1 mg/kg or SC 5 mg/kg single): No adverse effect was observed
AUC0-last ([2]; male beagle dogs, IV 1 mg/kg single): 2850 ± 439 ng·h/mL
AUC0-last ([2]; male beagle dogs, SC 5 mg/kg single): 16100 ± 2510 ng·h/mL
bioavailability ([2]; male beagle dogs, SC 5 mg/kg, calculated with mean AUC0-last and nominal dose): 112%
AUC(0-inf) [2, 10]: 2900 ng·h/mL
C0 [2, 10]: 4820 ng/mL
Vd [2, 10]: 0.302 L/kg
clearance [2, 10]: 5.85 mL/min/kg
AUC(0-inf) [2, 11]: 16200 ng·h/mL
Cmax [2, 11]: 7300 ng/mL
Tmax [2, 11]: 50 min
half-life [2, 11]: 53 min
Dose dependence of systemic exposure (AUC0-last and Cmax) ([3]; male beagle dogs, SC 1 to 25 mg/kg): increased with dose proportionally
AUC(0-inf) ([3]; 1 mg/kg): 2770 ng·h/mL
AUC(0-t) ([3]; 1 mg/kg): 2760 ng·h/mL
Cmax ([3]; 1 mg/kg): 925 ng/mL
Tmax ([3]; 1 mg/kg): 60 min
half-life ([3]; 1 mg/kg): 57.4 min
AUC(0-inf) ([3]; 5 mg/kg): 16800 ng·h/mL
AUC(0-t) ([3]; 5 mg/kg): 16700 ng·h/mL
Cmax ([3]; 5 mg/kg): 7090 ng/mL
Tmax ([3]; 5 mg/kg): 60 min
half-life ([3]; 5 mg/kg): 54.4 min
AUC(0-inf) ([3]; 25 mg/kg): 72800 ng·h/mL
AUC(0-t) ([3]; 25 mg/kg): 72800 ng·h/mL
Cmax ([3]; 25 mg/kg): 33300 ng/mL
Tmax ([3]; 25 mg/kg): 40 min
half-life ([3]; 25 mg/kg): 121 min
Mean erythrocyte to plasma ratio KE/P ([4]; dog whole blood, 0.200 μM, 37°C, 60 min): < 0.18
Mean erythrocyte to plasma ratio KE/P ([4]; dog whole blood, 2.00 μM, 37°C, 60 min): 0.07
Mean erythrocyte to plasma ratio KE/P ([4]; dog whole blood, 10.0 μM, 37°C, 60 min): < 0.14
Mean blood-to-plasma ratio KB/P ([4]; dog whole blood, 10.0 μM, 37°C, 60 min, LC-MS/MS): 0.58
tissue to tissue ratio at 1 h, 0.2 µM ([4]; dog, whole blood): 0.57
tissue to tissue ratio at 1 h, 2 µM ([4]; dog, whole blood): 0.55
Relative Abundance (UV%) (mouse hepatocytes): 88.92%
Relative MS abundance (%Total) ([5]; male SD rat bile): 100.00%
Relative MS abundance (%Total) ([5]; male SD rat feces): 100.00%
Relative MS abundance (%Total) ([5]; male SD rat urine): 99.93%
IC50 (CYP2D6): > 100 µM
IC50 (CYP1A2): > 100 µM
Time-dependent inhibition of CYP1A2 (CYP1A2; [12]): no time-dependent inhibition
IC50 (CYP2B6 [6]): > 100 µM
Time-dependent inhibition of CYP2B6 (CYP2B6 [6]; [12]): no time-dependent inhibition
IC50 (CYP2C9): > 100 µM
Time-dependent inhibition of CYP2C9 (CYP2C9; [12]): no time-dependent inhibition
IC50 at 30 min (CYP3A; human, pooled human liver microsomes): > 100 µM
Time-dependent inhibition of CYP3A (CYP3A; midazolam and testosterone as substrates, cutoff IC50 shift >= 1.5-fold): no time-dependent inhibition
Induction of CYP2B6 (enzyme activity and gene expression) (CYP2B6 [7]): not considered as an inducer
IC50 (OAT1): > 100 µM
IC50 (MATE1): > 100 µM

From publication doi:10.1101/2023.04.18.537371v1 (bioRxiv, 2023)
